{"source": "paper PMC8095338", "about": "(Neuro-oncology Advances, 2021)", "assay": "Dose-finding study, plasma PK in wild-type minipigs", "assay_type": "in vivo, minipig", "settings": "for Cmax: female, WT minipig, plasma (data not shown)", "experimental": "This was conducted to determine the dose required to reach the human equivalent therapeutic exposure. Human equivalent doses of 50, 75, 300, and 600 mg were tested. Each dose was administered orally to a 5-month-old wild-type female minipig. Blood was collected immediately prior to drug administration (T = 0) and 1, 2, 6, and 24 h after drug administration.", "data": [{"smiles": "Cn1cnc2c(F)c(Nc3ccc(Br)cc3Cl)c(C(=O)NOCCO)cc21", "note": "[selumetinib]", "values": [{"measurement": "dose proportionality of selumetinib exposure", "setting": "WT minipigs, from 75 to 300 mg human equivalent dose", "value": "dose proportional"}, {"measurement": "Cmax", "setting": "single oral 300 mg human equivalent dose", "value": 1000, "unit": "ng/mL"}, {"measurement": "Cmax", "setting": "single oral 600 mg human equivalent dose", "value": 670, "unit": "ng/mL"}]}]}
